In patent US11896615B2, “Immunotherapy methods and compositions involving tryptophan metabolic pathway modulators” (Juno Therapeutics, Inc., priority 2016, dated 2024):
“Also recorded” adds a separate entry of the source.

Tests used:
[1] = test system: anti-CD19 CAR-expressing T cells; experiment: Cytokine release in co-culture supernatants; type: cell-based, human; conditions: for GM-CSF level in supernatant / IFNγ level in supernatant / TNFα level in supernatant: epacadostat 10, 100 or 1000 nM or supplemental tryptophan, compared to no addition; for IL-2 levels in supernatant: for up to 72 hours, levels decreased at 96 hours
[2] = test system: CD4+ and CD8+ CAR-expressing T cells; experiment: CD25 surface expression on CD4+ and CD8+ CAR-expressing T cells (flow cytometry); type: cell-based, human
[3] = test system: CAR-expressing T cells; experiment: CAR T function in tryptophan-depleted media with supplemental tryptophan; type: cell-based, human
Description: Effects of tryptophan starvation on antigen-induced function of CAR-T cells were assessed. CAR-expressing T cells labeled with CellTrace™ violet were co-cultured with target cells (K562 human myelogenous leukemia target cells transduced with CD19 (CD19.K562)) that had been observed not to induce IDO1-expression, in tryptophan-depleted media, with or without the addition of various concentrations of supplemental tryptophan. Tryptophan-containing media was used as a control (Trp Control). Target cell count and proliferation (assessed by flow cytometry via CTV dye dilution; MFI=mean fluorescence intensity).
A similar study was carried out to assess effects of tryptophan-starvation, but in which CAR-mediated function was induced using an agonistic anti-idiotype antibody specific for the CAR as opposed to antigen-expressing target cells. Anti-CD19 CAR-expressing cells, generated substantially as described in Example 1, were stimulated for 96 hours using plate-bound anti-idiotypic agonistic antibody, in tryptophan-depleted media, alone or supplemented with various concentrations of tryptophan. The number of CD3^+ cells per well was determined. Representative results from exemplary studies are shown in FIG. 15D and FIG. 15E (results from three different donors). […]

[4] = test system: anti-CD19 CAR-expressing T cells; experiment: Recovery from tryptophan starvation; type: cell-based, human; conditions: supplemental tryptophan added after starvation, out to 96 hours
Description: Anti-CD19 CAR-expressing T cells, generated as described in Example 1, were cultured in tryptophan starvation conditions (chemically defined tryptophan-free media) for 24, 48, 72 or 96 hours (24, 48, 72 or 96 hr Trp starv.). After tryptophan starvation for the indicated time, supplemental tryptophan was added to the cultures. The cells then were cultured in the presence of tryptophan until the cells were harvested at 24, 48, 72 or 96 hours. As a control, reflecting tryptophan sufficient conditions, cells were cultured in tryptophan-sufficient media for each respective time period (complete media). The number of CD3^+ cells per well was assessed. Intracellular production of interferon-gamma (IFNγ) and tumor necrosis factor alpha (TNFα) was assessed by intracellular cytokine staining, and the percentage of CD4+ or CD8+ cells positive for cytokine accumulation was determined.

[5] = test system: anti-CD19 CAR-expressing T cells; experiment: CAR T cell counts and proliferation with IDO1 inhibitor or supplemental tryptophan in co-culture with CD19.A549; type: cell-based, human; conditions: 5 μg/mL added every 24 hours, 96 hours with IDO1+ A549.CD19, compared to no treatment
Description: Proliferation was assessed by flow cytometry, and CAR+ T cell count in each well was determined.

[6] = test system: anti-CD19 CAR-expressing cells; experiment: Intracellular cytokines after re-exposure to antigen following tryptophan starvation; type: cell-based, human; conditions: tryptophan supplementation in the subsequent culture
Description: Effect of tryptophan starvation on CAR-T function (proliferation, cytokine production) following subsequent re-exposure to antigen was assessed. […] The cells were harvested, counted and re-cultured with fresh CD19-expressing A549 target cells (CD19.A549) in tryptophan-depleted media (media from the “no tx” cultures at 96 hours) with or without supplemented tryptophan. Intracellular levels of interferon-gamma (IFNγ) and interlekukin-2 (IL-2) were assessed by intracellular cytokine staining, and the percentage of CD4+ or CD8+ cells deemed positive for the given intracellular cytokine production was determined.

[7] = test system: anti-CD19 CAR-expressing T cells; experiment: Effect of tryptophan metabolites on CAR T proliferation with IDO1- target cells; type: cell-based, human; conditions: 96 hours; for CAR T cell proliferation: CD19.Daudi target cells, 0 to 100 μM; for CAR T cell numbers (CD3+ cells per well): CD19.K562 target cells, 6.25 to 100 μM
Description: Cells were stained for surface expression of CD4 and CD8. Proliferation of T cell populations was determined by flow cytometry, based on the extent of dilution of the CellTrace™ violet dye. […] The number of CD3^+ cells per well was determined using CountBright beads.

[8] = test system: CAR T cells; experiment: CAR T cell proliferation in the presence of IDO1+ HS-5 bystander cells; type: cell-based, human; conditions: with or without HS-5 cells, 96 hours, various concentrations
Description: Proliferation of CAR T cells in the presence of IDO1-expressing bone marrow stromal cells or an IDO1 inhibitor was determined.

[9] = test system: anti-CD19 CAR-expressing T cells; experiment: Proliferation of anti-CD19 CAR T cells co-cultured with IDO1- target cells (CD19.Daudi, K562.CD19); type: cell-based, human; conditions: co-culture with IDO1- cells, various concentrations
Description: (§1) Similar methods were used to assess the effect of the IDO1 inhibitor on proliferation of CAR-expressing T cells following co-culture of anti-CD19 CAR-expressing cells with either IDO1^+ cells (A549.CD19) or IDO1^− cells (K562.CD19). […] The average number of CAR T cell divisions was calculated based on peaks in dye dilution, and proliferation of CD4^+ and CD8^+ subsets was compared.

[10] = test system: anti-CD19 CAR-expressing T cells; experiment: Sustained expansion of anti-CD19 CAR T cells (% confluency over time); type: cell-based, human
Description: Expansion of anti-CD19 expressing CAR cells following co-culture with A549 adenocarcinoma human alveolar basal epithelial cells transduced with human CD19 (CD19.A549 cells) was assessed for over 10 days. […] Expansion was assessed based on % confluency in the culture as determined over time. […] The IDO1 inhibitor-promoted increase in expansion was sustained for more than 10 days in culture. The results were consistent with a conclusion that IDO-upregulation and/or IDO-dependent signaling can occur or be promoted following CAR-T antigen-specific activation and result in dampening of proliferation of the CAR-T cells, e.g., over a 5- or 10-day period, and that inhibition of IDO can in some contexts rescue such inhibition.

[11] = test system: CD19.A549; experiment: Cytolytic activity of anti-CD19 CAR T cells (Incucyte, NucRed-labeled targets); type: cell-based, human; conditions: 0 to 1000 nM, 0.25:1 E:T, up to approximately 340 hours
Description: Lysis of target cells was measured over time using the Incucyte quantitative cell analysis system (Essen BioScience) by assessing the staining intensity of cells for the NucRed dye.

[12] = test system: anti-CD19 CAR-expressing T cells; experiment: Proliferation of anti-CD19 CAR T cells co-cultured with IDO1+ CD19.A549 cells (CellTrace violet dilution, bead counts, microscopy); type: cell-based, human
Description: Cells were stained for expression of CD4 and CD8 and proliferation of T cell populations determined by flow cytometry, based on the extent of dilution of the CellTrace™ Violet dye.
Similar methods were used to assess proliferation of anti-CD19 CAR-expressing T cells generated from three different healthy donors following co-culture with CD19-expressing A549 target cells (CD19.A549).
The number of CAR T cells in each well was determined using CountBright Absolute Counting beads.
as §1
Cells were visualized at 72 hours and 120 hours.

[13] = test system: anti-ROR1 CAR-expressing T cells; experiment: Proliferation of anti-ROR1 CAR T cells co-cultured with CD19.A549 cells; type: cell-based, human; conditions: 250 nM, E:T 3:1, 96 hours, compared to absence of inhibitor
Text: Similar methods were used to assess the effect of the IDO1 inhibitor on proliferation of anti-ROR1 CAR-expressing T cells cultured in the presence of antigen-expressing target cells.

[14] = test system: dendritic cells; experiment: IDO1 expression in dendritic cells after IFNγ and/or LPS stimulation; type: cell-based; conditions: dendritic cells (DC), 24 hours stimulation
Description: To assess whether myeloid cells present in the TME, including tumor-associated macrophages and dendritic cells, can be induced to express IDO1, the expression level of IDO1 in dendritic cells and macrophages upon stimulation by interferon-gamma (IFNγ) or lipopolysaccharide (LPS) was determined by flow cytometry. Dendritic cells were subject to monoculture with GM-CSF and interleukin-4 (IL-4), and macrophages were subject to monoculture with M-CSF, for 6 days. After monoculture, the cells were stimulated with IFNγ and/or LPS for 24 hours, and IDO1 expression was determined by flow cytometry.

[15] = test system: JeKo-1, Daudi, Raji and Nalm-6 cells; experiment: IDO1 expression in other CD19+ tumor cell lines after IFNγ incubation; type: cell-based, human; conditions: incubation with IFNγ under similar conditions
Description: (§2) A549 adenocarcinoma human alveolar basal epithelial cells transduced with human CD19 (CD19.A549 cells, which may also referred to as A549.CD19 cells) were assessed for expression of indoleamine-pyrrole 2,3-dioxygenase 1 (IDO1) following stimulation with interferon-gamma (IFNγ). CD19.A549 cells were stimulated with IFNγ for 24 or 48 hours and IDO1 levels were assessed by flow cytometry using an anti-IDO antibody. […] Increased IDO1 expression was not detected in other CD19^+ tumor cell lines in this assay, including JeKo-1, Daudi, Raji and Nalm-6 cells, following incubation with IFNγ under similar conditions.

[16] = test system: HS-5 human bone marrow stromal cells; experiment: IDO1 expression in HS-5 bone marrow stromal cells after IFNγ; type: cell-based; conditions: 20 ng/mL recombinant human IFNγ, 24 hours
Description: Expression level of Indoleamine-Pyrrole 2,3-Dioxygenase 1 (IDO1) was determined in bone marrow stromal cells upon stimulation by interferon-gamma (IFNγ) or with co-incubation with CAR-expressing T cells. Bone marrow stromal cells are exemplary of bystander cells, e.g., non-tumor cells, present in the TME.
HS-5 human bone marrow stromal cells were stimulated with 20 ng/mL recombinant human IFNγ for 24 hours.

[17] = test system: CD19.A549 cells; experiment: IDO1 expression in CD19.A549 cells after IFNγ stimulation (flow cytometry); type: cell-based, human
Description: as §2
CD19.A549 cells were cultured with various concentrations of recombinant human IFNγ.

[18] = supplemental tryptophan or 100 nM or 1000 nM epacadostat, co-culture with CD19.A549

## N[C@@H](Cc1c[nH]c2ccccc12)C(=O)O [tryptophan]
[1]
  GM-CSF level in supernatant: increased level
  IFNγ level in supernatant: increased level
  TNFα level in supernatant: increased level
  IL-2 levels in supernatant: increased
[2]; [18]
  CD25 surface expression (MFI): reduced
[3]; CD19.K562 target cells, tryptophan-depleted media
  inhibitory effect of tryptophan starvation on antigen-specific function of CAR T cells: reversed
[3]; plate-bound anti-idiotypic agonistic antibody, 96 hours
  inhibition of CAR-mediated function by tryptophan starvation (CD3+ cells per well): restored
[4]
  proliferative capacity after tryptophan starvation: did not completely restore proliferative capacity
[5]
  proliferation of CAR-T cells: restored proliferation of the CAR-T cells
[6]
  reduction in cytokine production (IFNγ, IL-2) after re-encounter with target cells: partially restored

## Nc1ccccc1C(=O)C[C@H](N)C(=O)O [L-Kynurenine]
[7]
  CAR T cell proliferation: did not inhibit CAR T cell proliferation
  CAR T cell numbers (CD3+ cells per well): did not substantially affect CAR T cell numbers

## NS(=O)(=O)NCCNc1nonc1C(=NO)Nc1ccc(F)c(Br)c1 [epacadostat, 4-({2-[(aminosulfonyl)amino]ethyl}amino)-N-(3-bromo-4-fluorophenyl)-N′-hydroxy-1,2,5-oxadiazole-3-carboximidamide]
[8]
  proliferation of CAR T cells: not substantially affected
[1]; 48 hours, 1:1 E:T with CD19.A549, various concentrations
  TNFα production: increased TNFα production
[1]
  GM-CSF level in supernatant: increased level
  IFNγ level in supernatant: increased level
  TNFα level in supernatant: increased level
  IL-2 levels in supernatant: increased
[2]; 96 hours co-culture with IDO1+ CD19.A549 cells, 1:1 E:T
  CD25 surface expression (MFI): reduced
[2]; 96 hours co-culture with IDO1- CD19.Daudi cells
  CD25 surface expression: not affected
[2]; [18]
  CD25 surface expression (MFI): reduced
[9]
  proliferation of CD4+ and CD8+ CAR-expressing T cells: not when co-cultured with IDO1^− cells (Daudi)
[10]; 0 to 1000 nM, up to approximately 340 hours
  expansion of CAR-expressing T cells (% confluency): increasing expansion of CAR-expressing T cells
[10]; in culture with CD19.A549
  duration of inhibitor-promoted increase in expansion: over 10 days
[11]
  NucRed dye intensity of target cells (AUC): dose-dependent reduction of NucRed dye intensity
[12]; 250 nM, 96 hours, three donors, compared to absence of inhibitor
  number of CAR T cells per well: higher number CAR T cells
[12]; 1 μM, 120 hours, 1:1 E:T, compared to no inhibitor
  CAR-expressing T cells visualized by microscopy: large increase in CAR-expressing T cells
[12]; Homo sapiens, co-culture with A549 cells (IDO1+), 1:1 E:T, read-out: estimated EC50 (CAR T proliferation)
  EC50: ~223 nM
[12]; co-culture with IDO1+ CD19.A549 cells, 96 hours, various concentrations
  proliferation of CD4+ and CD8+ CAR-expressing T cells: dose-dependent increase in proliferation; also recorded: increased proliferation
[13]
  number of CAR T cells: higher number of CAR T cells

## Nc1c(O)cccc1C(=O)O [3-HAA, 3-hydroxyanthranilic acid]
[7]
  CAR T cell proliferation: did not inhibit CAR T cell proliferation
  CAR T cell numbers (CD3+ cells per well): did not substantially affect CAR T cell numbers

## IFNγ: interferon-gamma (IFNγ), recombinant human
[14]
  IDO1 expression: induced IDO1 expression
[15]
  IDO1 expression: not detected
[16]
  IDO1 expression: increase of IDO1 expression
[17]; IFNγ stimulation for 24 and 48 hours, compared to unstimulated cells
  IDO1 expression: increased expression of endogenous IDO1
[17]; various concentrations of recombinant human IFNγ
  IDO1 expression (MFI): dose-responsive increase in IDO1 expression
